Test results: US20060281695A1, “Control of parasites in animals by N-[(phenyloxy)phenyl]-1,1,1-trifluoromethanesulfonamide and N-[(phenylsulfanyl)phenyl]-1,1,1-trifluoromethanesulfonamide derivatives” (priority 2005, published 2006)

Tests used:
Haemonchus contortus = Haemonchus contortus larvacidal (larval development) assay, LD99; type: in vitro
Method: The LD99 value is the dose, expressed as […], that was required to kill 99% of a sample of Haemonchus contortus.
a) Haemonchus Contortus Larvacidal Assay:
The effect of compounds on larval development was determined in the assay described by Gill et al. [International Journal of Parasitology 25:463-470 (1995)]. Briefly, in this assay, nematode eggs are applied to the surface of an agar matrix containing the test compound and then allowed to develop through to the L3, infective stage (6 days). The wells for each dilution of every compound (from highest to lowest concentration) are inspected to determine the well number corresponding to the lowest concentration at which development is inhibited in 99% of the nematode larvae present (LD99). Because well numbers correspond to a two-fold serial dilution of each compound, a titre (dilution factor) is generated as 2^n−1, where n is the well number. By dividing the highest concentration tested by the titre an LD99 value can be obtained, representing the concentration required to inhibit development in 99% of the nematode larvae present. The compounds supplied as solid and viscous liquids are dissolved in DMSO. Twelve serial one-half dilutions in DMSO solution are prepared from the stock solution, each of which is then diluted 1/5 with water. Aliquots (10 μl) of each dilution are transferred to the bioassay plates to give a final concentration range of 0.024 to 50 μg/ml.
(§1) In Table 7, provided below, are listed the Haemonchus contortus LD99 values (measured in micrograms/mL), the Ctenocephalides felis rapid screening values (measured in % mortality), the Ctenocephalides felis LC50 values (measured in micrograms/cm^2) and the Rhipicephalus sanguineus rapid screening values (measured in % mortality) for selected compounds in accordance with the present invention.

[1] = system: cat flea (Ctenocephalides felis); assay: Ctenocephalides felis adulticide assay: single dose screen on treated glass surface (% mortality at 1.26 μg/cm^2, 24 hours); type: in vivo; settings: for mortality at 1.26 µg/cm2, 1.26 µg/cm2: Ctenocephalides felis, 24 h, read-out: Ctenocephalides felis Mortality (%) 24 h
Method: The LC50 value is the concentration, expressed as μg/cm^2, that was required to kill 50% of the sample of cat fleas on contact with the tested compound. Certain tests are also reported as the percent of a sample of cat fleas that were killed at a concentration of 1.26 μg/cm^2 (“% mortality”), for the compounds tested in this way.
b) Ctenocephalides felis Adulticide Assay: C.felis single dose screen
Mortality of fleas is the primary endpoint in the assay. […] The concentration chosen (1.26 μg/cm^2) is higher than that known to kill 90% of cat fleas (LC90) using the reference compound, permethrin.
The test species employed was the cat flea (Ctenocephalides felis). The strain used was obtained from external suppliers as pupae and held in the laboratory under testing conditions until the adults had emerged. Fifteen (15) fleas were used in a minimum of four replicates against a single concentration level (approximately 60 fleas). The insects were selected to be in the adult life stage, aged between 3 and 7 days post emergence.
The compounds to be tested were supplied as solids and were prepared in acetone as described below prior to testing. Samples were stored in a refrigerator (5±1° C.) unless otherwise specified.
During the mortality testing, the temperature was maintained at 25±1° C. Humidity was maintained at 75±5%. The base (area=159 mm^2) of a 100 mL glass Erlenmeyer (conical) flask provided the treatment surface. Flasks were pre-treated with Coatasil™ glass treatment to maximise bio-availability of test compounds by preventing them from binding to glass the surface. The base of the 100 mL Erlenmeyer flask was treated with 0.5 mL of test sample in acetone and gently swirled. This volume was sufficient to cover the base of the flask. Flasks were left to dry for 24 hours before flea exposure.
Adult cat fleas were placed into a sorting chamber, which allowed fleas to jump into the Erlenmeyer flasks. Fifteen (15) adult cat fleas were collected in each flask. The top of the flasks were then covered in Parafilm™ and small holes were made to allow gas exchange. A 0.5 mL volume of acetone as a solvent control was applied to the base of an Erlenmeyer flask and the testing proceeded in the same manner described above. […] Pooled 24 hour mortality data were converted to percentages and are summarized by Table 4, below.
as §1

[2] = system: Brown Dog Tick (Rhipicephalus sanguineus); assay: Topical application on brown dog ticks, single dose screen (% mortality at 24 hours); type: in vivo; settings: adult brown dog ticks, topical 1 μL in acetone on abdomen, single dose 10 μg per tick
Method: d) Topical Application On Brown Dog Ticks (Rhipicephalus sanguineus)
The aim of the test is to determine the presence of significant acaricidal activity in sample compounds or formulations when applied topically on brown dog ticks. A tick is defined as dead if it gives no apparent response when: (i) touched lightly and (ii) then observed for 1 minute. To assess the experimental compound for acaricidal activity, a single dose level is chosen based on known results from previous experiments with a commercially available active reference compound.
In the present example, both permethrin and fipronil were employed as reference compounds. The insect species tested was the Brown Dog Tick (Rhipicephalus sanguineus). Mixed sex adult ticks were used for tests. The strain used was cultured from a field strain and supplied as unfed adult ticks (mixed sex). Ticks were maintained in controlled conditions (temp. 18°±2° C., humidity 75±5% RH).
Test compounds (formulations or active ingredients) were stored in a refrigerator (5±1° C.) unless otherwise specified. The temperature was maintained at 25±1° C. and the humidity was ambient. The screening dose chosen was higher than that known kill 90% of insects (LD90) using the reference compound. In the case of topical application of active compounds on adult ticks, the reference compound was fipronil and the dose chosen was 10 μg of active per tick (=10 μg of fipronil/1 μl of acetone). Ticks were each treated on the abdomen with 1 μL of a single dose level of test sample in acetone; ten ticks were treated with solvent only (acetone) in each test. Tests were replicated 4 times (total of 40 ticks treated). Ticks were held in recovery containers maintained under appropriate rearing conditions for 24 hours. Mortality resulting from the treatments was recorded at 24 hours. Pooled 24 hour mortality data were converted to percentages.
as §1

Compound	Haemonchus contortus LD99 (Haemonchus contortus) [µg/mL]	Ctenocephalides felis Mortality (%) 24 h ([1]; in vivo) [%]	Ctenocephalides felis Mortality (%) 24 h ([1]; adult cat fleas, single dose screen on treated glass surface, mortality at 24 h) [%]	Rhipicephalus sanguineus Mortality (%) 24 h [2] [%]	mortality at 1.26 µg/cm2, 1.26 µg/cm2 [1] [%]	Ctenocephalides felis Mortality (%), measured at 48 hours ([1]; in vivo) [%]
O=S(=O)(Nc1cc(C(F)(F)F)ccc1Oc1ccc(Cl)cc1Cl)C(F)(F)F [Compound 10]	1.5	38	–	–	–	–
O=S(=O)(Nc1cccc(Cl)c1Oc1ccc(Cl)cc1Cl)C(F)(F)F [Compound 11]	2.5	20	–	–	–	–
O=S(=O)(Nc1cc(Cl)c(Cl)cc1Oc1ccc(Cl)cc1Cl)C(F)(F)F [Compound 13]	1.8	48	–	–	–	–
O=S(=O)(Nc1ccc(Cl)c(Cl)c1Oc1ccccc1F)C(F)(F)F [Compound 17]	7.5	19	–	–	–	–
CC(C)(C)c1ccc(Oc2cc(Cl)c(Cl)cc2NS(=O)(=O)C(F)(F)F)cc1 [Compound 18]	2.8	19	–	–	–	–
O=S(=O)(Nc1cc(Cl)c(Cl)cc1Oc1ccc(F)cc1Cl)C(F)(F)F [Compound 19]	5.0	42	–	–	–	–
O=S(=O)(Nc1cc(C(F)(F)F)c(Cl)cc1Oc1ccc(Cl)cc1Cl)C(F)(F)F [Compound 22]	0.63	4	–	–	–	–
O=S(=O)(c1ccc(Cl)cc1)c1cc(Cl)ccc1NS(=O)(=O)C(F)(F)F [Compound 24, N-[4-chloro-2-(4-(chlorophenyl)sulfonyl)phenyl]-1,1,1-trifluoromethanesulfonamide]	12.0	19	–	–	–	–
Cc1cccc(Oc2cc(Cl)ccc2NS(=O)(=O)C(F)(F)F)c1C [Compound 27]	14	59	–	–	–	–
O=S(=O)(Nc1ccc(Cl)cc1Oc1cccc2c1CCCC2)C(F)(F)F [Compound 28]	12	–	10	–	–	–
O=S(=O)(Nc1cc(C(F)(F)F)ccc1Oc1ccc(Cl)cc1)C(F)(F)F [Compound 29]	7.0	57	–	–	–	–
CN(c1ccc(Cl)cc1Oc1ccc(Cl)cc1Cl)S(=O)(=O)C(F)(F)F [Compound 70, N-[4-Chloro-2-(2,4-dichlorophenoxy)phenyl]-N-methyl-1,1,1-trifluoromethanesulfonamide]	–	–	–	5	11	91
CCOCN(c1ccc(Cl)cc1Oc1ccc(Cl)cc1Cl)S(=O)(=O)C(F)(F)F [Compound 71, N-[4-Chloro-2-(2,4-dichlorophenoxy)phenyl]-N-ethoxymethyl 1,1,1-trifluoromethanesulfonamide]	–	0	–	5	–	100
CC(C)(C)C(=O)OCN(c1ccc(Cl)cc1Oc1ccc(Cl)cc1Cl)S(=O)(=O)C(F)(F)F [Compound 72, N-[4-Chloro-2-(2,4-dichlorophenoxy)phenyl]-N-(trimethylacetyl)oxymethyl-1,1,1-trifluoromethanesulfonamide]	–	–	–	0	14	100
CCCC(=O)OCN(c1ccc(Cl)cc1Oc1ccc(Cl)cc1Cl)S(=O)(=O)C(F)(F)F [Compound 73, N-[4-chloro-2-(2,4-dichlorophenoxy)phenyl]-N-(butyryl)oxymethyl-1,1,1-trifluoromethanesulfonamide]	–	–	–	8	31	100
CC(C)=CCN(c1ccc(Cl)cc1Oc1ccc(Cl)cc1Cl)S(=O)(=O)C(F)(F)F [Compound 75, N-(3-methyl-2-butenyl)-N-[4-chloro-2-(2,4-dichlorophenoxy)phenyl]-1,1,1-trifluoromethanesulfonamide]	–	–	–	3	97	–
CC(C)=CCN(c1ccc(Cl)cc1Oc1ccccc1F)S(=O)(=O)C(F)(F)F [Compound 82]	–	90	–	0	–	–
C#CCN(c1ccc(Cl)cc1Oc1ccc(Cl)cc1Cl)S(=O)(=O)C(F)(F)F [Compound 83, N-[4-chloro-2-(2,4-dichlorophenoxy)phenyl]-N-(2-propynyl)-1,1,1-trifluoromethanesulfonamide]	–	–	–	8	100	–
COCN(c1ccc(Cl)cc1Oc1ccc(Cl)cc1Cl)S(=O)(=O)C(F)(F)F [Compound 84]	–	100	–	0	–	–
C#CCN(c1ccc(Cl)cc1Oc1ccccc1F)S(=O)(=O)C(F)(F)F [Compound 85]	–	97	–	5	–	–
O=S(=O)(Nc1ccccc1Nc1ccccc1)C(F)(F)F [Compound 90]	–	88	–	13	–	–
O=S(=O)(Nc1cccc(Oc2ccccc2)c1)C(F)(F)F [m1]	–	93	–	38	–	–
CCOCN(c1cccc(Oc2ccccc2)c1)S(=O)(=O)C(F)(F)F [m3]	–	57	–	38	–	–
COCN(c1cccc(Oc2ccccc2)c1)S(=O)(=O)C(F)(F)F [m4]	–	90	–	8	–	–
